Experimental data reported in paper PMC10914475 (iScience, 2024).

Target: SfCht5 (S. frugiperda chitinase 5; rSfCht5) (Spodoptera frugiperda, UniProt A0A8K1Z7B3)
Assay: residual endochitinase activity with synthetic substrate
Assay type: biochemical

SfCht5 (S. frugiperda chitinase 5; rSfCht5), sequence (A0A8K1Z7B3 21-555): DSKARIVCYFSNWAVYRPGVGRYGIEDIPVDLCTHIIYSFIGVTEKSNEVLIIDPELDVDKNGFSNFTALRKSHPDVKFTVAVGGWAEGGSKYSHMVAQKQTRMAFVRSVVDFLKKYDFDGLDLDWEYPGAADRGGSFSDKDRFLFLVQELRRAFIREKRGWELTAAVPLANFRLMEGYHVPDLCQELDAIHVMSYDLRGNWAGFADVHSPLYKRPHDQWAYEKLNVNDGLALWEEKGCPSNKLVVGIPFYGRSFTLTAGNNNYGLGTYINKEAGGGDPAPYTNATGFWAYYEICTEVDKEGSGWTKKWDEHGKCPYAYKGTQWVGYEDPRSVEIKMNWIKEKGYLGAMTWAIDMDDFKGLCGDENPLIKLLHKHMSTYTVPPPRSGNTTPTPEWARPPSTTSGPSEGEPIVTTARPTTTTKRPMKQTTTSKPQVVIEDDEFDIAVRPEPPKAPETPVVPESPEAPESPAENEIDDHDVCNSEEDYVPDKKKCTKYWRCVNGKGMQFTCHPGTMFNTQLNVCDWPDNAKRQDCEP

COc1ccc2cc3[n+](cc2c1OC)CCc1cc2c(cc1-3)OCO2 [berberine, 9,10-Dimethoxy-5,6-dihydro-[1,3] dioxolo[4,5-g]isoquinolino[3,2-a]isoquinolin-7-ium chloride dihydrate]
IC50: ~158 µM
